Measurements reported in US20130096098A1, “Light Insensitive Silver(i) Cyanoximates As Antimicrobial Agents For Indwelling Medical Devices” (MISSOURI STATE UNIVERSITY, priority 2011, published 2013).
Where two headings read alike, the source gives them in different places.

Assays:
[1] = tested on: inoculated microorganisms; test: Antibacterial tests in solid state: soaked dried filter paper disks on agar plates; type: cell-based; conditions: deposited on filter papers from DMF 10 mg/mL, 20 μL; 37° C., 24 h
Description: (§1) Antimicrobial Activity Studies. Bacterial Strains and Growing Conditions. The strains of bacteria were obtained from Polish Collection of Microorganisms (PCM) of the Institute of Immunology and Experimental Therapy of Polish Academy of Sciences and were used throughout this study. Both Gram-negative and Gram-positive bacteria, as well as yeasts, commonly isolated from patients suffering implant-related infections, were chosen for experiments. They included Escherichia coli PCM 1144 (ATCC #10536), Klebsiella pneumoniae PCM 57, Proteus sp. PCM 542 (ATCC #13315), Pseudomonas aeruginosa PCM 2563 (ATCC #15442), Streptococcus mutans PCM 2502, Staphylococcus aureus PCM 2602 (ATCC #6538), Enterococcus hirae PCM 2559 (ATCC #10541), Mycobacterium fortuitum PCM 672, Candida albicans PCM 2566 (ATCC #10231). In addition, several multidrug-resistant bacterial strains isolated from patients with nosocomial infections K. pneumoniae 244, P. aeruginosa 2314, AMA, Enterococcus faecium VRE (vancomycin-resistant), Streptococcus pneumoniae PCI, S. aureus MRSA (methicillin-resistant), S. aureus MRSC (coagulase-negative methicillin-resistant), were also included in the in vitro testing. Bacteria were cultivated on sugar broth at 37° C. for 24 h in aerobic conditions, and prior to use in tests, cells were diluted with the same medium to obtain suspensions of about 2×10^5 cfu/mL.
Antibacterial Tests in Solid State: Soaked Dried Paper Disks and Pellets. Solutions (or suspensions if the compound was not completely solubilized) of studied Ag(I) cyanoximates in DMF at 10 mg/mL concentration were prepared and 20 μL of it was placed on filter paper discs (diameter 12 mm). These discs were dried for ˜2 h in the dark prior to testing where each filter was placed on agar plates with inoculated microorganisms, which were then incubated at 37° C. for 24 h. Thereafter, microorganisms' growth inhibition zone (if present) was measured (in mm).

[2] = tested on: Mycobacterium fortuitum; test: Antibacterial tests in solid state: pressed AgL pellets on agar plates; type: cell-based
Description: as §1
(§2) Also, Ag(I) cyanoximates were pressed into 12 mm in diameter pellets using a Carver 20 tons hydraulic press. The method of testing pellets was similar to the one described above. Solid pellets of AgL were carefully placed on agar plates with inoculated bacteria. The exposition time was 24 h at 37° C., after which inhibition zones were measured and results were documented by digital photography.

[3] = tested on: Pseudomonas aeruginosa; test: as above; type: cell-based
Description: as §1, §2

[4] = tested on: bacterial strains; test: Antibacterial tests in solutions, microplate Alamar Blue assay (MIC); type: cell-based; conditions: stock in DMSO, 37° C., 48 h, tested infection agents
Description: Antimicrobial Activity Studies. Bacterial Strains and Growing Conditions. The strains of bacteria were obtained from Polish Collection of Microorganisms (PCM) of the Institute of Immunology and Experimental Therapy of Polish Academy of Sciences and were used throughout this study. Both Gram-negative and Gram-positive bacteria, as well as yeasts, commonly isolated from patients suffering implant-related infections, were chosen for experiments. They included Escherichia coli PCM 1144 (ATCC #10536), Klebsiella pneumoniae PCM 57, Proteus sp. PCM 542 (ATCC #13315), Pseudomonas aeruginosa PCM 2563 (ATCC #15442), Streptococcus mutans PCM 2502, Staphylococcus aureus PCM 2602 (ATCC #6538), Enterococcus hirae PCM 2559 (ATCC #10541), Mycobacterium fortuitum PCM 672, Candida albicans PCM 2566 (ATCC #10231). […]
Antibacterial Tests in Solutions. The antibacterial activities of synthesized Ag(I) cyanoximates were determined against bacterial strains by the microplate Alamar Blue assay. […] The fluorescence was measured using Victor^2 apparatus (Wallac, Perkin-Elmer), and the experiment was repeated three times. […] Means and standard error values were determined using the Microsoft Excel.

[5] = UV-light stability studies, low-pressure Hg lamp 254 nm; type: physicochemical
Method: Photophysical Measurements. Light sensitivity and stability of synthesized Ag(I) cyanoximates was studied at 296 K using a low-pressure Hg lamp with >85% output at λmax=254 nm where the intensity of light was measured with a UVX radiometer (UK). After 4 min warm-up time, this lamp generated a steady flux of UV-radiation that was equal to the dose of 10.13 J/cm^2 within 30 min. Prior to these investigations, complexes were thoroughly dried under high vacuum (<10^−4 Torr) and ground into a powder using an agate mortar. This made it easy to apply these compounds to paper, adhesive tape, or cardboard. Samples of complex were spread on white cardboard with an exposed circular area (via a mask) of ˜3 cm. The radiation source was positioned 1 cm from the sample. A pristine white silver chloride prepared in the dark was used as a control substance to access the light stability of silver(I) cyanoximates. Digital pictures of irradiated samples were taken every 30 min using a stationary digital camera (Kodak DX7630; 6.1 Mpx), and native images were cropped to square shape without any contrast or brightness editing using Samsung Digimax Viewer 2.0 software.

[6] = 12 mm pressed pellets, 24 h at 37° C., FIG. 10

Compound | effect on bacterial growth on solid media (inhibition zones) [1] | growth inhibition zone [2, 6] | growth inhibition zone [3, 6] | stability toward short wavelength UV-radiation [5] | further results
N#CC(=N[O-])C(=O)c1ccccc1.[Ag+] [Ag(BCO), Silver(I) α-Oximido-(2-benzoyl)acetonitrile] | exhibit antimicrobial activity in the solid state | – | – | – | –
Cn1c(C(C#N)=N[O-])nc2ccccc21.[Ag+] [Ag(BIMCO), Silver(I) α-Oximido-(2-[N-methyl]benzoimidazolyl)acetonitrile] | exhibit antimicrobial activity in the solid state | – | – | – | –
N#CC(=N[O-])c1nc2ccccc2o1.[Ag+] [Ag(BOCO), 2-(Oximido)-2-benzoxazoleacetonitrile Silver(I)] | exhibit antimicrobial activity in the solid state | clear inhibition zones | clear inhibition zones | – | –
CN(C)C(=O)C(C#N)=N[O-].[Ag+] [Ag(DCO), Silver(I) α-Oximido-([N,N-dimethylamine]acetamide)acetonitrile] | exhibit antimicrobial activity in the solid state | – | – | resistance | minimal inhibitory concentration (MIC), ranking [4]: lowest MIC value; growth inhibition zone [2]: clear inhibition zones; growth inhibition zone [3]: clear inhibition zones
CCOC(=O)C(C#N)=N[O-].[Ag+] [Ag(ECO), Silver(I) α-Oximido-(ethylacetoxy)acetonitrile] | exhibit antimicrobial activity in the solid state | clear inhibition zones | clear inhibition zones | – | –
[Cl][Ag] [AgC1, silver chloride, reference compound] | – | – | – | completely darken | –
Silver(I) Nitrosodicyanomethanide [Ag(CCO)] | exhibit antimicrobial activity in the solid state | clear inhibition zones | clear inhibition zones | – | stability toward short wavelength UV-radiation ([5]; solid powders, 254 nm, 296 K, FIG. 8): resistance
Silver(I) α-Oximido-(2-pivaloyl)acetonitrile [Ag(PiCO)] | exhibit antimicrobial activity in the solid state | – | – | – | minimal inhibitory concentration (MIC), ranking [4]: lowest MIC value
Silver(I) α-Oximido-(acetamide)acetonitrile [Ag(ACO)] | – | – | – | resistance | –
